# Tests used:
# HCV replicon genotype 1b = experiment: HCV replicon assay, genotype 1b (cell ELISA for NS3/4A); format: cell-based, hepatitis C virus; settings: Hepatitis C virus, 96 h, read-out: 1b IC50 (nM), HCV genotype 1b replicon cells, 96 hours incubation, NS3/4A ELISA readout, % of DMSO control
# Procedure, shortened: (§1)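 Readout is NS3/4A protein level from an antibody-based cell ELISA, serving as an indirect measure of replicon RNA; IC50 fitted with a four-parameter function relative to DMSO control. Replicon cells, kept under G418 beforehand, were plated with serial compound dilutions minus G418 for 96 hours.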
# HCV replicon genotype 1a = experiment: HCV replicon assay, genotype 1a (cell ELISA for NS3/4A); format: cell-based, hepatitis C virus; settings: Hepatitis C virus, 96 h, read-out: 1a IC50 (nM), HCV genotype 1a replicon cells, 96 hours incubation, NS3/4A ELISA readout, % of DMSO control
# Procedure, shortened: as §1
Structure (SMILES),IC50 (HCV replicon genotype 1b),IC50 (HCV replicon genotype 1a)
"CNC(=O)c1c(-c2ccc(F)cc2)oc2cc(N(C)S(C)(=O)=O)c([C@@H]3CCCN(S(=O)(=O)Cc4ccccn4)C3)cc12 [Example 123, 2-(4-fluorophenyl)-N-methyl-6-[methyl(methylsulfonyl)amino]-5-{(3S)-1-[(pyridin-2-ylmethyl)sulfonyl]piperidin-3-yl}-1-benzofuran-3-carboxamide]",29.8 nM,106 nM
"CNC(=O)c1c(-c2ccc(F)cc2)oc2cc(N(C)S(C)(=O)=O)c([C@@H]3CCCN(S(=O)(=O)CCc4ccccc4)C3)cc12 [Example 124, 2-(4-fluorophenyl)-N-methyl-6-[methyl(methylsulfonyl)amino]-5-{(3S)-1-[(2-phenylethyl)sulfonyl]piperidin-3-yl}-1-benzofuran-3-carboxamide]",72.9 nM,182 nM
"CNC(=O)c1c(-c2ccc(F)cc2)oc2cc(N(C)S(C)(=O)=O)c([C@@H]3CCCN(S(=O)(=O)c4cnc5n4CCCCC5)C3)cc12 [Example 125, 2-(4-fluorophenyl)-N-methyl-6-[methyl(methylsulfonyl)amino]-5-[(3S)-1-(6,7,8,9-tetrahydro-5H-imidazo[1,2-a]azepin-3-ylsulfonyl)piperidin-3-yl]-1-benzofuran-3-carboxamide]",67.6 nM,172 nM
"CNC(=O)c1c(-c2ccc(F)cc2)oc2cc(N(C)S(C)(=O)=O)c([C@@H]3CCCN(S(=O)(=O)c4cccc(C)c4)C3)cc12 [Example 126, 2-(4-fluorophenyl)-N-methyl-6-[methyl(methylsulfonyl)amino]-5-{(3S)-1-[(3-methylphenyl)sulfonyl]piperidin-3-yl}-1-benzofuran-3-carboxamide]",13.2 nM,46.9 nM
"CNC(=O)c1c(-c2ccc(F)cc2)oc2cc(N(C)S(C)(=O)=O)c([C@@H]3CCCN(S(=O)(=O)c4cnc5c(c4)OCCN5C)C3)cc12 [Example 127, 2-(4-fluorophenyl)-N-methyl-5-{(3S)-1-[(4-methyl-3,4-dihydro-2H-pyrido[3,2-b][1,4]oxazin-7-yl)sulfonyl]piperidin-3-yl}-6-[methyl(methylsulfonyl)amino]-1-benzofuran-3-carboxamide]",32.4 nM,90.2 nM
"CNC(=O)c1c(-c2ccc(F)cc2)oc2cc(N(C)S(C)(=O)=O)c([C@H]3CCCN(S(=O)(=O)c4ccccc4C)C3)cc12 [Example 128, 2-(4-fluorophenyl)-N-methyl-6-[methyl(methylsulfonyl)amino]-5-{(3R)-1-[(2-methylphenyl)sulfonyl]piperidin-3-yl}-1-benzofuran-3-carboxamide]",24.2 nM,34.2 nM
"CNC(=O)c1c(-c2ccc(F)cc2)oc2cc(N(C)S(C)(=O)=O)c([C@H]3CCCN(S(=O)(=O)c4ccc5ncsc5c4)C3)cc12 [Example 129, 5-[(3R)-1-(1,3-benzothiazol-6-ylsulfonyl)piperidin-3-yl]-2-(4-fluorophenyl)-N-methyl-6-[methyl(methylsulfonyl)amino]-1-benzofuran-3-carboxamide]",110 nM,194 nM
"CNC(=O)c1c(-c2ccc(F)cc2)oc2cc(N(C)S(C)(=O)=O)c([C@H]3CCCN(S(=O)(=O)c4cccc(F)c4)C3)cc12 [Example 130, 2-(4-fluorophenyl)-5-{(3R)-1-[(3-fluorophenyl)sulfonyl]piperidin-3-yl}-N-methyl-6-[methyl(methylsulfonyl)amino]-1-benzofuran-3-carboxamide]",95.5 nM,174 nM
"CNC(=O)c1c(-c2ccc(F)cc2)oc2cc(N(C)S(C)(=O)=O)c([C@H]3CCCN(S(=O)(=O)c4ccc(F)cc4)C3)cc12 [Example 131, 2-(4-fluorophenyl)-5-{(3R)-1-[(4-fluorophenyl)sulfonyl]piperidin-3-yl}-N-methyl-6-[methyl(methylsulfonyl)amino]-1-benzofuran-3-carboxamide]",88.9 nM,176 nM
"CNC(=O)c1c(-c2ccc(F)cc2)oc2cc(N(C)S(C)(=O)=O)c([C@H]3CCCN(S(=O)(=O)C4CCCCC4)C3)cc12 [Example 132, 5-[(3R)-1-(cyclohexylsulfonyl)piperidin-3-yl]-2-(4-fluorophenyl)-N-methyl-6-[methyl(methylsulfonyl)amino]-1-benzofuran-3-carboxamide]",56.1 nM,93.3 nM
"CNC(=O)c1c(-c2ccc(F)cc2)oc2cc(N(C)S(C)(=O)=O)c([C@H]3CCCN(S(=O)(=O)c4c(Cl)nc5sccn45)C3)cc12 [Example 133, 5-{(3R)-1-[(6-chloroimidazo[2,1-b][1,3]thiazol-5-yl)sulfonyl]piperidin-3-yl}-2-(4-fluorophenyl)-N-methyl-6-[methyl(methylsulfonyl)amino]-1-benzofuran-3-carboxamide]",74.7 nM,106 nM
"CNC(=O)c1c(-c2ccc(F)cc2)oc2cc(N(C)S(C)(=O)=O)c([C@H]3CCCN(S(=O)(=O)c4ccccc4)C3)cc12 [Example 134, 2-(4-fluorophenyl)-N-methyl-6-[methyl(methylsulfonyl)amino]-5-[(3R)-1-(phenylsulfonyl)piperidin-3-yl]-1-benzofuran-3-carboxamide]",58.3 nM,85.9 nM
"CNC(=O)c1c(-c2ccc(F)cc2)oc2cc(N(C)S(C)(=O)=O)c([C@H]3CCCN(S(=O)(=O)C4CCCC4)C3)cc12 [Example 135, 5-[(3R)-1-(cyclopentylsulfonyl)piperidin-3-yl]-2-(4-fluorophenyl)-N-methyl-6-[methyl(methylsulfonyl)amino]-1-benzofuran-3-carboxamide]",45.6 nM,80.4 nM
"CNC(=O)c1c(-c2ccc(F)cc2)oc2cc(N(C)S(C)(=O)=O)c([C@H]3CCCN(S(=O)(=O)c4ccccc4F)C3)cc12 [Example 136, 2-(4-fluorophenyl)-5-{(3R)-1-[(2-fluorophenyl)sulfonyl]piperidin-3-yl}-N-methyl-6-[methyl(methylsulfonyl)amino]-1-benzofuran-3-carboxamide]",40.5 nM,58.5 nM
"CNC(=O)c1c(-c2ccc(F)cc2)oc2cc(N(C)S(C)(=O)=O)c([C@H]3CCCN(S(=O)(=O)Cc4ccccc4)C3)cc12 [Example 137, 5-[(3R)-1-(benzylsulfonyl)piperidin-3-yl]-2-(4-fluorophenyl)-N-methyl-6-[methyl(methylsulfonyl)amino]-1-benzofuran-3-carboxamide]",3.04 nM,2.15 nM
"CNC(=O)c1c(-c2ccc(F)cc2)oc2cc(N(C)S(C)(=O)=O)c([C@H]3CCCN(S(=O)(=O)c4cccc5nonc45)C3)cc12 [Example 138, 5-[(3R)-1-(2,1,3-benzoxadiazol-4-ylsulfonyl)piperidin-3-yl]-2-(4-fluorophenyl)-N-methyl-6-[methyl(methylsulfonyl)amino]-1-benzofuran-3-carboxamide]",55.7 nM,139 nM
"CNC(=O)c1c(-c2ccc(F)cc2)oc2cc(N(C)S(C)(=O)=O)c([C@H]3CCCN(S(=O)(=O)Cc4ccccn4)C3)cc12 [Example 139, 2-(4-fluorophenyl)-N-methyl-6-[methyl(methylsulfonyl)amino]-5-{(3R)-1-[(pyridin-2-ylmethyl)sulfonyl]piperidin-3-yl}-1-benzofuran-3-carboxamide]",21.1 nM,35 nM
"CNC(=O)c1c(-c2ccc(F)cc2)oc2cc(N(C)S(C)(=O)=O)c([C@H]3CCCN(S(=O)(=O)Cc4cccnc4)C3)cc12 [Example 140, 2-(4-fluorophenyl)-N-methyl-6-[methyl(methylsulfonyl)amino]-5-{(3R)-1-[(pyridin-3-ylmethyl)sulfonyl]piperidin-3-yl}-1-benzofuran-3-carboxamide]",16.5 nM,20.5 nM
"CNC(=O)c1c(-c2ccc(F)cc2)oc2cc(N(C)S(C)(=O)=O)c([C@H]3CCCN(S(=O)(=O)CCc4ccccc4)C3)cc12 [Example 141, 2-(4-fluorophenyl)-N-methyl-6-[methyl(methylsulfonyl)amino]-5-{(3R)-1-[(2-phenylethyl)sulfonyl]piperidin-3-yl}-1-benzofuran-3-carboxamide]",14.2 nM,10.6 nM
"CNC(=O)c1c(-c2ccc(F)cc2)oc2cc(N(C)S(C)(=O)=O)c([C@H]3CCCN(S(=O)(=O)c4cccc(C)c4)C3)cc12 [Example 142, 2-(4-fluorophenyl)-N-methyl-6-[methyl(methylsulfonyl)amino]-5-{(3R)-1-[(3-methylphenyl)sulfonyl]piperidin-3-yl}-1-benzofuran-3-carboxamide]",91.7 nM,198 nM
"CNC(=O)c1c(-c2ccc(F)cc2)oc2cc(N(C)S(C)(=O)=O)c([C@H]3CCCN(S(=O)(=O)c4cn(CC(C)C)nc4C)C3)cc12 [Example 143, 2-(4-fluorophenyl)-N-methyl-5-[(3R)-1-{[3-methyl-1-(2-methylpropyl)-1H-pyrazol-4-yl]sulfonyl}piperidin-3-yl]-6-[methyl(methylsulfonyl)amino]-1-benzofuran-3-carboxamide]",214 nM,315 nM

# — US9549921B2, “Heterocyclic compounds and methods of use thereof for the treatment of hepatitis C” (priority 2014, dated 2017)
